From US9802939
Read-outs that look alike come from different tables or passages of the source.

Conditions: 12-membered ring

SMILES | ring closure, isolated yield (from C=CCCOc1ccccc1-c1cn(COCC[Si](C)(C)C)c([C@H](CC=C)NC(=O)OC(C)(C)C)n1, rcm bond, Grubbs II (1 eq)/pTsOH, DCM, 1.02 mM, 40.0 °C) [%] | ring closure, isolated yield (from COC(=O)Nc1ccc(-c2cn(COCC[Si](C)(C)C)c([C@H](CN(CCC(=O)O)C(=O)OC(C)(C)C)NC(=O)OCc3ccccc3)n2)c(N)c1, amide bond, BOP/DIEA, DCM/DMF, 0.93 mM, 25.0 °C) [%]
CC(C)(C)OC(=O)N[C@H]1CC=CCCOc2ccccc2-c2cn(COCC[Si](C)(C)C)c1n2 | 20 | 
COC(=O)Nc1ccc2c(c1)NC(=O)CCN(C(=O)OC(C)(C)C)C[C@H](NC(=O)OCc1ccccc1)c1nc-2cn1COCC[Si](C)(C)C |  | 87
